Assay results as given in patent US9056832B2, “Pyridine compounds and the users thereof” (Purdue Pharma L.P., priority 2010, dated 2015).
Read-outs that look alike come from different tables or passages of the source.

Assays:
human Nav1.7 = human Nav1.7 (Homo sapiens (Human), UniProt Q15858); assay: FLIPR or FLIPR TETRA sodium dye assay with KCl and test article pre-incubation; format: cell-based; conditions: read-out: Nav1.7 IC50 (μM) ± SEM
[1] = system: neuropathic hyperalgesia in rats; assay: Seltzer model (partial sciatic nerve ligation) of neuropathic pain, paw withdrawal threshold; format: in vivo; conditions: 30 mg/kg p.o., rat; for Time post-dose (h) with statistically significant increase in paw withdrawal threshold: Seltzer model, assessed 1, 3 and 5 h after administration
Description: Test Animals: Each experiment uses rats weighing between 200-260 g at the start of the experiment. The rats are group-housed and have free access to food and water at all times, except prior to oral administration of a test compound when food is removed for 16 hours before dosing. A control group acts as a comparison to rats treated with a compound of Formulae I-XXXIII. The control group is administered the carrier as used for the test compound. The volume of carrier administered to the control group is the same as the volume of carrier and test compound administered to the test group.
In the Seltzer model, the partial sciatic nerve ligation model of neuropathic pain was used to produce neuropathic hyperalgesia in rats (Seltzer et al., Pain 43:205-218 (1990)). Partial ligation of the left sciatic nerve was performed under inhalation anesthesia, e.g., isoflurane/O2. Following induction of anesthesia, the left thigh of the rat was shaved and the sciatic nerve exposed at high thigh level through a small incision and was carefully cleared of surrounding connective tissues at a site near the trocanther just distal to the point at which the posterior biceps semitendinosus nerve branches off of the common sciatic nerve. A 7-0 silk suture was inserted into the nerve, e.g., with a ⅜ curved, reversed-cutting mini-needle, and tightly ligated so that the dorsal ⅓ to ½ of the nerve thickness was held within the ligature. The wound was closed, e.g., with a single muscle suture (4-0 nylon (Vicryl)) and vetbond tissue glue. Following surgery, the wound area was dusted with antibiotic powder. Sham-treated rats undergo an identical surgical procedure except that the sciatic nerve is not manipulated. Following surgery, animals were weighed and placed on a warm pad until they recovered from anesthesia. Animals were then returned to their home cages until behavioral testing began. The animals were assessed for response to noxious mechanical stimuli by determining PWT, as described below, prior to surgery (baseline), then immediately prior to and 1, 3, and 5 hours after drug administration for rear paw of the animal. Percentage reversal of neuropathic hyperalgesia is defined as: […]
The following compounds were tested and produced a statistically significant increase in paw withdrawal threshold when administered at 30 mg/kg p.o. in the Seltzer model of neuropathic pain at the time points indicated:
Mechanical Hyperalgesia: Sensitivity to noxious mechanical stimuli can be measured in animals using the paw pressure test to assess mechanical hyperalgesia. In rats, hind paw withdrawal thresholds (“PWT”), measured in grams, in response to a noxious mechanical stimulus are determined using an analgesymeter (Model 7200, commercially available from Ugo Basile of Italy), as described in Stein (Biochemistry & Behavior 31: 451-455 (1988)). The rat's paw is placed on a small platform, and weight is applied in a graded manner up to a maximum of 250 grams. The endpoint is taken as the weight at which the paw is completely withdrawn. PWT is determined once for each rat at each time point. PWT can be measured only in the injured paw, or in both the injured and non-injured paw. In one non-limiting embodiment, mechanical hyperalgesia associated with nerve injury induced pain (neuropathic pain) can be assessed in rats. Rats are tested prior to surgery to determine a baseline, or normal, PWT. Rats are tested again 2 to 3 weeks post-surgery, prior to, and at different times after (e.g. 1, 3, 5 and 24 hr) drug administration.

[2] = recombinant human Nav1.7 in HEK293 cells, CoroNa Green sodium dye, veratridine + scorpion venom

Chain of human Nav1.7 (Q15858 other isoform, or with tags, fused parts or gaps): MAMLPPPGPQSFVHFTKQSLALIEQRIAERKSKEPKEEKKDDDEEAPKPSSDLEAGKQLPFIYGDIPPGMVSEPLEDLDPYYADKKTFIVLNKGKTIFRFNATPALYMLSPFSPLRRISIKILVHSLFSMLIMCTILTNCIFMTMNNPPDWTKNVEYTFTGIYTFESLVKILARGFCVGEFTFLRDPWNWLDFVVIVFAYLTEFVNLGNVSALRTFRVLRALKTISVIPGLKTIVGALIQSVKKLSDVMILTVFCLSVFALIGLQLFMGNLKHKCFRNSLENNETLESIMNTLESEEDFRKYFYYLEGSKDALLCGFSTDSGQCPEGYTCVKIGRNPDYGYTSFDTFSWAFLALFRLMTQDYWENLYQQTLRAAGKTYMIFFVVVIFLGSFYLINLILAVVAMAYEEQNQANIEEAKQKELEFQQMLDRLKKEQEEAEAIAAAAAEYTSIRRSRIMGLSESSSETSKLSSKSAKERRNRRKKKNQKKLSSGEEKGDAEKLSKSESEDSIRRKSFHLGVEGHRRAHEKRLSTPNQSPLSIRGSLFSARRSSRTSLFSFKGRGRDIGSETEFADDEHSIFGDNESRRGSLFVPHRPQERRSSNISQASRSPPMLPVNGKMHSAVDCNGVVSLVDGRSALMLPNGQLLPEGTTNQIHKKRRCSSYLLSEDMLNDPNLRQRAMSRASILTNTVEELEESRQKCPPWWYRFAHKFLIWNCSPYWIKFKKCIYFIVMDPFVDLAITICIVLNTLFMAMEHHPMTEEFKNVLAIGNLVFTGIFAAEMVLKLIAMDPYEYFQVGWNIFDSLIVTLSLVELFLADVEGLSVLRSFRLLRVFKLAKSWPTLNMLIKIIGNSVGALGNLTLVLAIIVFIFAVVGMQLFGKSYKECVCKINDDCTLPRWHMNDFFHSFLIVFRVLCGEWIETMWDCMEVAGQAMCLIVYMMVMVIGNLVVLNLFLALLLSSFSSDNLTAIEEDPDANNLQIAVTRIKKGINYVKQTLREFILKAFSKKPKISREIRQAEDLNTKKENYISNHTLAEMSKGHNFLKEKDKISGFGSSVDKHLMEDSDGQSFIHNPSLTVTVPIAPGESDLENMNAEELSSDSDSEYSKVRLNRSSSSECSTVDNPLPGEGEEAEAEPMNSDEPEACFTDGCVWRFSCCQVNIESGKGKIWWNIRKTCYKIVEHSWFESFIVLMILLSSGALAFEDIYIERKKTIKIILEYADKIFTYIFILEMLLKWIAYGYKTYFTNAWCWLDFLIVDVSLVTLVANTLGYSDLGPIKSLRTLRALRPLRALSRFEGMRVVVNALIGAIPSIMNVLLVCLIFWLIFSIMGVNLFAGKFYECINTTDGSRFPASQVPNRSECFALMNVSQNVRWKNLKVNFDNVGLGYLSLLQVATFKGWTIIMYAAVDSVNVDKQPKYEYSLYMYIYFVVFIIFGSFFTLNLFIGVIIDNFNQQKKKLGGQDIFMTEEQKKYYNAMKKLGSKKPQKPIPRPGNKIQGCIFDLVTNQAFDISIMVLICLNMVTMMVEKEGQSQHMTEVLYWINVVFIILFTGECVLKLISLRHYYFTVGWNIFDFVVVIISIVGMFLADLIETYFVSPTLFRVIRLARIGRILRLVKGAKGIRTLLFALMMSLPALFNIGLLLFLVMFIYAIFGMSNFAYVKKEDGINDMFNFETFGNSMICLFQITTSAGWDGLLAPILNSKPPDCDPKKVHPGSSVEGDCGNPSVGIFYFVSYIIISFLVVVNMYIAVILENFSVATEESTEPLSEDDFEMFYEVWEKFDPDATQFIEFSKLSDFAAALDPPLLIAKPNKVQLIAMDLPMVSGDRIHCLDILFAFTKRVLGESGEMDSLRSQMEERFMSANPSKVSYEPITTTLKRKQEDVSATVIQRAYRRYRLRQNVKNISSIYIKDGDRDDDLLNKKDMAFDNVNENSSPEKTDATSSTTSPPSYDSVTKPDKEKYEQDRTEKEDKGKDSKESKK

Row | SMILES | IC50 (human Nav1.7; [2]) [µM] | Time post-dose (h) with statistically significant increase in paw withdrawal threshold [1] [h] | further results
1 | N#Cc1cc(C(F)(F)F)ccc1Oc1ccc(-c2cccc(CNCCN3CCNC3=O)n2)cc1 [compound 63, 2-(4-(6-(((2-(2-oxoimidazolidin-1-yl)ethyl)amino)methyl)pyridin-2-yl)phenoxy)-5-(trifluoromethyl) benzonitrile] | 0.09 ± 0.03 |  | increase in paw withdrawal threshold in the Seltzer model ([1]; vehicle 10% Tween 80 in water): did not produce a statistically significant increase
2 | N#Cc1cc(Oc2ccc(-c3cccc([C@H](O)CO)n3)cc2)ccc1C(F)(F)F [compound 18, (S)-5-(4-(6-(1,2-dihydroxyethyl)pyridin-2-yl)phenoxy)-2-(trifluoromethyl) benzonitrile] |  | 1 | IC50 (human Nav1.7): 2.8 ± 0.12 µM
3 | OC[C@H](O)c1cccc(-c2ccc(Oc3ccc(C(F)(F)F)cc3)cc2)n1 [compound 5, (R)-1-(6-(4-(4-(trifluoromethyl)phenoxy)phenyl)pyridin-2-yl)ethane-1,2-diol] |  | 1 | IC50 (human Nav1.7): 0.16 ± 0.07 µM
4 | O=C1NCCN1CCNCc1cccc(-c2ccc(Oc3ccc(C(F)(F)F)cn3)cc2)n1 [compound 68, 1-(2-(((6-(4-((5-(trifluoromethyl)pyridin-2-yl)oxy)phenyl)pyridin-2-yl)methyl)amino)ethyl) imidazolidin-2-one] | 0.18 ± 0.09 | 1 | 
5 | O=C(O)c1ccc2ccn(-c3cc(C(=O)O)nc(-c4ccc(Oc5ccc(F)cc5)cc4)c3)c2c1 [compound 130, 1-(2-carboxy-6-(4-(4-fluorophenoxy)phenyl)pyridin-4-yl)-1H-indole-6-carboxylic acid] | 2.47 ± 0.73 |  | 
6 | CC(C)NC(=O)N1CCN(c2cc(-c3ccc(Oc4ccc(F)cc4)cc3)nc([C@@H](O)CO)c2)CC1 [compound 7, (R)-4-(2-(1,2-dihydroxyethyl)-6-(4-(4-fluorophenoxy)phenyl)pyridin-4-yl)-N-isopropyl piperazine-1-carboxamide] | 0.32 ± 0.02 |  | 
7 | NC(=O)c1cc([C@@H](O)CO)cc(-c2ccc(Oc3cc(Cl)ccc3F)cc2)n1 [compound 123, (R)-6-(4-(5-chloro-2-fluorophenoxy)phenyl)-4-(1,2-dihydroxyethyl) picolinamide] | 0.17 ± 0.03 |  | 
8 | NC(=O)c1cc([C@H](O)CO)cc(-c2ccc(Oc3ccc(C(F)(F)F)cc3)cc2)n1 [compound 30, (S)-4-(1,2-dihydroxyethyl)-6-(4-(4-(trifluoromethyl)phenoxy)phenyl) picolinamide] | 0.24 ± 0.07 | 1 | 
9 | NC(=O)c1cc(N2CCNCC2)cc(-c2ccc(Oc3ccc(F)cc3)cc2)n1 [compound 55, 6-(4-(4-fluorophenoxy)phenyl)-4-(piperazin-1-yl) picolinamide] | 0.23 ± 0.06 |  | 
10 | CN(c1ccc(C(=O)O)cc1)c1cc(C(=O)O)nc(-c2ccc(Oc3ccc(F)cc3)cc2)c1 [compound 117, 4-((4-carboxyphenyl)(methy)amino)-6-(4-(4-fluorophenoxy)phenyl) picolinic acid] |  |  | IC50 (human Nav1.7): > 20 µM
11 | O=C(O)CN(c1ccccc1)c1cc(C(=O)O)nc(-c2ccc(Oc3ccc(F)cc3)cc2)c1 [compound 92, 4-((carboxymethyl) (phenyl)amino)-6-(4-(4-fluorophenoxy)phenyl)picolinic acid] | 3.83 ± 0.64 |  | 
12 | N#Cc1ccc(Oc2ccc(-c3cc([C@H](O)CO)cc(C(N)=O)n3)cc2)cc1 [compound 37, (S)-6-(4-(4-cyanophenoxy)phenyl)-4-(1,2-dihydroxyethyl) picolinamide] | 0.44 ± 0.1 |  | 
13 | NC(=O)c1cc([C@@H](O)CO)cc(-c2ccc(Oc3ccc(F)cc3)cc2)n1 [compound 40, (R)-4-(1,2-dihydroxyethyl)-6-(4-(4-fluorophenoxy)phenyl)picolinamide] |  | 1 | 
